One block for each compound: values may come before it.
Tested on: 171881-019-R-J1-PDC tumor spheroids, viability
Experiment: Anticancer human tumor 171881-019-R-J1-PDC patient-derived invasive breast carcinoma cell line growth inhibition [GQUAD]
Conditions: spheroids with HUVEC and MSC; for IC50: curve of first compound; for viability, T/C: stronger effect = lower value
Outline: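 Viability of tumor cells grown as complex spheroids with endothelial and stromal cells, exposed to drug combinations. Top concentration at or near clinical Cmax (else 10 microM), diluted in half-log increments.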

[1] = second compound 0.0316 µM, first compound 0.0316 µM
[2] = second compound 0.0316 µM, first compound 0.1 µM
[3] = second compound 0.0316 µM, first compound 0.316 µM
[4] = second compound 0.0316 µM, first compound 1 µM
[5] = second compound 0.0316 µM, first compound 3.16 µM
[6] = second compound 0.0316 µM, first compound 10 µM
[7] = second compound 0.1 µM, first compound 0.0316 µM
[8] = second compound 0.1 µM, first compound 0.1 µM
[9] = second compound 0.1 µM, first compound 0.316 µM
[10] = second compound 0.1 µM, first compound 1 µM
[11] = second compound 0.1 µM, first compound 3.16 µM
[12] = second compound 0.1 µM, first compound 10 µM
[13] = second compound 0.316 µM, first compound 0.0316 µM
[14] = second compound 0.316 µM, first compound 0.1 µM
[15] = second compound 0.316 µM, first compound 0.316 µM
[16] = second compound 0.316 µM, first compound 1 µM
[17] = second compound 0.316 µM, first compound 3.16 µM
[18] = second compound 0.316 µM, first compound 10 µM
[19] = second compound 1 µM, first compound 0.0316 µM
[20] = second compound 1 µM, first compound 0.1 µM
[21] = second compound 1 µM, first compound 0.316 µM
[22] = second compound 1 µM, first compound 1 µM
[23] = second compound 1 µM, first compound 3.16 µM
[24] = second compound 1 µM, first compound 10 µM
[25] = second compound 3.16 µM, first compound 0.0316 µM
[26] = second compound 3.16 µM, first compound 0.1 µM
[27] = second compound 3.16 µM, first compound 0.316 µM
[28] = second compound 3.16 µM, first compound 1 µM
[29] = second compound 3.16 µM, first compound 3.16 µM
[30] = second compound 3.16 µM, first compound 10 µM
[31] = second compound 10 µM, first compound 0.0316 µM
[32] = second compound 10 µM, first compound 0.1 µM
[33] = second compound 10 µM, first compound 0.316 µM
[34] = second compound 10 µM, first compound 1 µM
[35] = second compound 10 µM, first compound 3.16 µM
[36] = second compound 10 µM, first compound 10 µM
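Wherever viability, T/C is given: 100% = DMSO vehicle control viability.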

SMILES: COc1ncnc(C2CC2)c1-c1ncc2cnn(Cc3ccc(-c4nc(C(F)(F)F)cn4C(C)C)cc3)c2n1 + Cc1[nH]c2ccc(F)cc2c1-c1nc2c3cccnc3c3ncccc3c2[nH]1
IC50 (second compound 0.0316 µM): > 10 µM | IC50 (second compound 0.1 µM): > 10 µM | IC50 (second compound 0.316 µM): > 10 µM | IC50 (second compound 1 µM): > 10 µM | IC50 (second compound 3.16 µM): < 0.0316 µM | IC50 (second compound 10 µM): < 0.0316 µM | viability, T/C [1]: 88.4% | viability, T/C [2]: 93.6% | viability, T/C [3]: 97.8% | viability, T/C [4]: 104% | viability, T/C [5]: 90.5% | viability, T/C [6]: 88.4% | viability, T/C [7]: 97.5% | viability, T/C [8]: 87.9% | viability, T/C [9]: 99.1% | viability, T/C [10]: 98.8% | viability, T/C [11]: 83.1% | viability, T/C [12]: 81.8% | viability, T/C [13]: 71.4% | viability, T/C [14]: 74.2% | viability, T/C [15]: 75.4% | viability, T/C [16]: 72% | viability, T/C [17]: 72.3% | viability, T/C [18]: 62.7% | viability, T/C [19]: 65.1% | viability, T/C [20]: 54.2% | viability, T/C [21]: 59.4% | viability, T/C [22]: 60.3% | viability, T/C [23]: 71.1% | viability, T/C [24]: 60.3% | viability, T/C [25]: 8.81% | viability, T/C [26]: 4.91% | viability, T/C [27]: 7.33% | viability, T/C [28]: 8.01% | viability, T/C [29]: 11.8% | viability, T/C [30]: 6.52% | viability, T/C [31]: 40.8% | viability, T/C [32]: 38.5% | viability, T/C [33]: 30.7% | viability, T/C [34]: 50% | viability, T/C [35]: 42.6% | viability, T/C [36]: 35.2%

IC50 (second compound 0.0316 µM): 1.02 µM | IC50 (second compound 0.1 µM): 1.72 µM | IC50 (second compound 0.316 µM): 1.86 µM | IC50 (second compound 1 µM): 3.42 µM | IC50 (second compound 3.16 µM): 3.71 µM | IC50 (second compound 10 µM): 3.2 µM
SMILES: CC(C)n1c(=O)n(C)c2cnc3cc(F)c(-c4ccc(OCCCN5CCCCC5)nc4)cc3c21 + Cc1cnc(CNC(=O)c2c(=O)c3ccc(N4CCCN(C)CC4)nc3n3c2sc2ccccc23)cn1
viability, T/C [1]: 63.7% | viability, T/C [2]: 56.6% | viability, T/C [3]: 59.6% | viability, T/C [4]: 48.2% | viability, T/C [5]: 39.1% | viability, T/C [6]: 16.1% | viability, T/C [7]: 62.4% | viability, T/C [8]: 62.2% | viability, T/C [9]: 58.6% | viability, T/C [10]: 55.9% | viability, T/C [11]: 43.8% | viability, T/C [12]: 17.4% | viability, T/C [13]: 66.6% | viability, T/C [14]: 65% | viability, T/C [15]: 60.5% | viability, T/C [16]: 58.9% | viability, T/C [17]: 43.3% | viability, T/C [18]: 20.8% | viability, T/C [19]: 66.7% | viability, T/C [20]: 63.5% | viability, T/C [21]: 66.5% | viability, T/C [22]: 57.7% | viability, T/C [23]: 53.2% | viability, T/C [24]: 25.4% | viability, T/C [25]: 62.1% | viability, T/C [26]: 63% | viability, T/C [27]: 66.5% | viability, T/C [28]: 60.7% | viability, T/C [29]: 53.1% | viability, T/C [30]: 28.2% | viability, T/C [31]: 61.8% | viability, T/C [32]: 64.2% | viability, T/C [33]: 61.7% | viability, T/C [34]: 58.7% | viability, T/C [35]: 50.4% | viability, T/C [36]: 25.3%

Source: PubChem BioAssay AID2060498 (Molecular Pharmacology Branch, DTP, NCI, 2025)
